Results from ChEMBL document CHEMBL3792292, “Development of a potent and selective FLT3 kinase inhibitor by systematic expansion of a non-selective fragment-screening hit” (Bioorg Med Chem Lett, 2016).

Assays:
[1] = molecular target: Fibroblast growth factor receptor 1 (Homo sapiens) (UniProt P11362); assay: Inhibition of human N-terminal GST-tagged FGFR1 cytoplasmic domain (398 to 822 residues) expressed in baculovirus expression system using fluorescence labelled CSKtide as substrate at 50 times IC50 by electrophoretic mobility shift assay relative to control
[2] = molecular target: High affinity nerve growth factor receptor (Homo sapiens, UniProt P04629); assay: Inhibition of human N-terminal GST-tagged TRKA cytoplasmic domain (436 to 790 residues) expressed in baculovirus expression system using fluorescence labelled CSKtide as substrate at 50 times IC50 by electrophoretic mobility shift assay relative to control
[3] = molecular target: T1, Tyrosine-protein kinase receptor TYRO3 (Homo sapiens) (UniProt Q06418); assay: Inhibition of human N-terminal GST-tagged TYRO3 cytoplasmic domain (453 to 890 residues) expressed in baculovirus expression system using fluorescence labelled CSKtide as substrate at 50 times IC50 by electrophoretic mobility shift assay relative to control
T1 sequence (whole entry): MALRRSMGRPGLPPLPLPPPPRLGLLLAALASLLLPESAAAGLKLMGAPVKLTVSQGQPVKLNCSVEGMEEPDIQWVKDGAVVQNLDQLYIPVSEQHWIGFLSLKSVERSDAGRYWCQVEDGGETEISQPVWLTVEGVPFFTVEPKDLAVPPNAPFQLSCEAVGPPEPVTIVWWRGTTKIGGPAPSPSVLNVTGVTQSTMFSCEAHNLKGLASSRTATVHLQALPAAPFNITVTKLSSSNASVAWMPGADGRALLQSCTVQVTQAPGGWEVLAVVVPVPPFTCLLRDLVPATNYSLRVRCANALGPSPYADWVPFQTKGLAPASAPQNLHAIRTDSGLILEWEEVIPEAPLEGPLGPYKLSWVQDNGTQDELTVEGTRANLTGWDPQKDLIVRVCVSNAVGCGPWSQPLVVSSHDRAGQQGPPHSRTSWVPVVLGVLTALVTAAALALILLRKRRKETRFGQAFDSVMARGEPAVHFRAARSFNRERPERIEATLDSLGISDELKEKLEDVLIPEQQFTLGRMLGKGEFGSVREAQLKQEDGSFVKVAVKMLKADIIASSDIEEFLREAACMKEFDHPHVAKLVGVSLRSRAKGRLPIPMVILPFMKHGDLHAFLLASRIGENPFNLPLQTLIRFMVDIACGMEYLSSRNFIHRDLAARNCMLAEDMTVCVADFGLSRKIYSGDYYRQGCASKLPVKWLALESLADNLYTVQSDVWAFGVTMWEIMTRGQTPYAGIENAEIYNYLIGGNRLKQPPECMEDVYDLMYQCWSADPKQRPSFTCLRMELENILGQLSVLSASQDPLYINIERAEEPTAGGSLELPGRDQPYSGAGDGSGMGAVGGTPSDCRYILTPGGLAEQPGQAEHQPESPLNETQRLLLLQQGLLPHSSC

[4] = molecular target: Death-associated protein kinase 1 (Homo sapiens) (UniProt P53355); assay: Inhibition of human N-terminal GST-tagged DAPK1 catalytic domain (1 to 289 residues) expressed in baculovirus expression system using fluorescence labelled DAPK1tide as substrate at 50 times IC50 by electrophoretic mobility shift assay relative to control
[5] = molecular target: T2, Inhibitor of nuclear factor kappa-B kinase subunit beta (Homo sapiens) (UniProt O14920); assay: Inhibition of human N-terminal His-tagged IKKbeta (1 to 662 residues) expressed in baculovirus expression system using fluorescence labelled modified IKBalpha derived peptide substrate at 50 times IC50 by electrophoretic mobility shift assay relative to control
T2 sequence (whole entry): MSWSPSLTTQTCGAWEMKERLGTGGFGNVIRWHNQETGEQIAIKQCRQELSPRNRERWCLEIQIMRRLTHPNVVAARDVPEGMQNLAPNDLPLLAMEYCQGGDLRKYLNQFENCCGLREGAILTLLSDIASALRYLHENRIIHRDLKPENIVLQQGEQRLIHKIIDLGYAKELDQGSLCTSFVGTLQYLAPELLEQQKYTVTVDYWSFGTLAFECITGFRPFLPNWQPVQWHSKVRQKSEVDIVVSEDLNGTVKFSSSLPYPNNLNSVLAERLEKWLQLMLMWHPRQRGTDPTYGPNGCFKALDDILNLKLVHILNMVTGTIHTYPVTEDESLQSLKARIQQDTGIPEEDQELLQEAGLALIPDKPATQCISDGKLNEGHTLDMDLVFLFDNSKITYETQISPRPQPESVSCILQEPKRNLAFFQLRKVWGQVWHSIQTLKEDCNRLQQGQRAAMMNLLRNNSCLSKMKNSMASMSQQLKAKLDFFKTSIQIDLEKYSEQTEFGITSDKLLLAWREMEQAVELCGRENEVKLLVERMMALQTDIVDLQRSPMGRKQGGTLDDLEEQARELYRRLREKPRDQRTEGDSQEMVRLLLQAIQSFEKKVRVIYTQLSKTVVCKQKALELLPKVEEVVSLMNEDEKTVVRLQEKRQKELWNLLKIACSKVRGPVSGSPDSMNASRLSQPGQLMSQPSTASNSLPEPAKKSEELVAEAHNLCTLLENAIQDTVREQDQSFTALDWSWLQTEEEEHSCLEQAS

[6] = molecular target: T3, Lymphokine-activated killer T-cell-originated protein kinase (Homo sapiens) (UniProt Q96KB5); assay: Inhibition of full length human N-terminal GST-tagged PBK (1 to 322 residues) expressed in baculovirus expression system using fluorescence labelled histone H3 peptide substrate at 50 times IC50 by electrophoretic mobility shift assay relative to control
T3 sequence (whole entry): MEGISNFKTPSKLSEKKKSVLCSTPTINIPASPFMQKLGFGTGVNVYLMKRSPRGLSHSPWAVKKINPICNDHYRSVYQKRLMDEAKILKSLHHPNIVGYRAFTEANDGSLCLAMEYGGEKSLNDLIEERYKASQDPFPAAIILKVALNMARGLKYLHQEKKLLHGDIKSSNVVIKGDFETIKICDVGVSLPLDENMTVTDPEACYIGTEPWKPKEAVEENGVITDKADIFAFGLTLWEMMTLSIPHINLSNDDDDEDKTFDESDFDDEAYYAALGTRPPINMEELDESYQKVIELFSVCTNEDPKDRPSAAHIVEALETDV

Sequence of Death-associated protein kinase 1 (Homo sapiens) (P53355 whole entry, looked up, the tested form may be a part): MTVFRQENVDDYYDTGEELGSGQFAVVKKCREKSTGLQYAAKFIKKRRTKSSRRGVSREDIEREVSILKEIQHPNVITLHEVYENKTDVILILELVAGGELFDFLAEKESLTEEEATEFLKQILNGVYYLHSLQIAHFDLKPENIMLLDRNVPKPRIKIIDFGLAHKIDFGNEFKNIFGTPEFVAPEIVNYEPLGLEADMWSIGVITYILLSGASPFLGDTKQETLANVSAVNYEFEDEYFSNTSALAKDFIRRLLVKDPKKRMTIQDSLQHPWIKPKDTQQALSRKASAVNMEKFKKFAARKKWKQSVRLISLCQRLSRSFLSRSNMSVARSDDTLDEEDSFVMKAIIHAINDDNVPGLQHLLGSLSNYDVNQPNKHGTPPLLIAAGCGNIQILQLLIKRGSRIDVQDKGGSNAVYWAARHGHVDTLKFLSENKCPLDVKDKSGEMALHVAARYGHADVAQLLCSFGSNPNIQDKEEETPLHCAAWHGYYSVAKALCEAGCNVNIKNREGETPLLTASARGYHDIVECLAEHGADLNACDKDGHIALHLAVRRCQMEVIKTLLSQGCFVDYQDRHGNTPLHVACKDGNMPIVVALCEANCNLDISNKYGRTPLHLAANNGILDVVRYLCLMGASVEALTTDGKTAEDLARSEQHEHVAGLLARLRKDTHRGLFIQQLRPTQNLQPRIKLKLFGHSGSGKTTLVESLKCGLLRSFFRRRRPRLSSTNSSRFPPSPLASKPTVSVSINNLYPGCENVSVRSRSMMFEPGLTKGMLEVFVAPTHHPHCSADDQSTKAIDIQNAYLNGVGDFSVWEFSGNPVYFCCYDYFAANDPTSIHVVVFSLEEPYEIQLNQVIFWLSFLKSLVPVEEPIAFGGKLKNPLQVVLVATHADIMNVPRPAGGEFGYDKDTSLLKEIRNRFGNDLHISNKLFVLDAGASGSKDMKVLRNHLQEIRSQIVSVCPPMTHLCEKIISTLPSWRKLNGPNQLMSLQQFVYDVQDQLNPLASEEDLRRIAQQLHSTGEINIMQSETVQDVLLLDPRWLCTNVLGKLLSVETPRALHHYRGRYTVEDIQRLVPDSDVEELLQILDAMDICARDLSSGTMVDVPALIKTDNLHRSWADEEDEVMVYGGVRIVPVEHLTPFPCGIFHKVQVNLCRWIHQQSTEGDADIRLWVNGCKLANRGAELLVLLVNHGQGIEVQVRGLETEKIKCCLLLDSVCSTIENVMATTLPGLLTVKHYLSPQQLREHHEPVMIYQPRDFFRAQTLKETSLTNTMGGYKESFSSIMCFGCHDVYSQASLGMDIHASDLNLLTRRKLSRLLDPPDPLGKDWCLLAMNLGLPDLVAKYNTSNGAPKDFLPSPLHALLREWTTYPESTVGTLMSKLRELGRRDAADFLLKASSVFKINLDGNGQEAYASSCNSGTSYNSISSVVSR
Sequence of High affinity nerve growth factor receptor (P04629 33-796 limits assumed): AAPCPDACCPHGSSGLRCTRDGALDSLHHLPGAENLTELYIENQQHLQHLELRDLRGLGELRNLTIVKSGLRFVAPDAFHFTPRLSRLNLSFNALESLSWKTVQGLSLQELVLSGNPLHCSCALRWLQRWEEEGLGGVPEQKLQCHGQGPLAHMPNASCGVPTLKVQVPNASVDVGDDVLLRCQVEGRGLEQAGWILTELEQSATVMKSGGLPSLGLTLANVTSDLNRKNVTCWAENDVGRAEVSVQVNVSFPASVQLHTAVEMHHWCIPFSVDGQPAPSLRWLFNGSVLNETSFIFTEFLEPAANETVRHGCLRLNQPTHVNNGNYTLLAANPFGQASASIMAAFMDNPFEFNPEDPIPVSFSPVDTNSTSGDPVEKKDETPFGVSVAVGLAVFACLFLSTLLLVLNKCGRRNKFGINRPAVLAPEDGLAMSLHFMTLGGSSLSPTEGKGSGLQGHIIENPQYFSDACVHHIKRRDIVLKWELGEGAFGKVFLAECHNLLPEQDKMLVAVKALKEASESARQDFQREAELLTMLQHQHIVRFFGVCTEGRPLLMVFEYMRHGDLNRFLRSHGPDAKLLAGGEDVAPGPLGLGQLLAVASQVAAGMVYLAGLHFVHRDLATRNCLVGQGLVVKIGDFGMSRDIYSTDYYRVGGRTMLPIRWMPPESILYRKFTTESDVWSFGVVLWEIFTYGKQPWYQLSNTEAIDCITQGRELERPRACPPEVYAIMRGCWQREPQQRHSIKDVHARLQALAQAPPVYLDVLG
Sequence of Fibroblast growth factor receptor 1 (Homo sapiens) (P11362 22-822 limits assumed): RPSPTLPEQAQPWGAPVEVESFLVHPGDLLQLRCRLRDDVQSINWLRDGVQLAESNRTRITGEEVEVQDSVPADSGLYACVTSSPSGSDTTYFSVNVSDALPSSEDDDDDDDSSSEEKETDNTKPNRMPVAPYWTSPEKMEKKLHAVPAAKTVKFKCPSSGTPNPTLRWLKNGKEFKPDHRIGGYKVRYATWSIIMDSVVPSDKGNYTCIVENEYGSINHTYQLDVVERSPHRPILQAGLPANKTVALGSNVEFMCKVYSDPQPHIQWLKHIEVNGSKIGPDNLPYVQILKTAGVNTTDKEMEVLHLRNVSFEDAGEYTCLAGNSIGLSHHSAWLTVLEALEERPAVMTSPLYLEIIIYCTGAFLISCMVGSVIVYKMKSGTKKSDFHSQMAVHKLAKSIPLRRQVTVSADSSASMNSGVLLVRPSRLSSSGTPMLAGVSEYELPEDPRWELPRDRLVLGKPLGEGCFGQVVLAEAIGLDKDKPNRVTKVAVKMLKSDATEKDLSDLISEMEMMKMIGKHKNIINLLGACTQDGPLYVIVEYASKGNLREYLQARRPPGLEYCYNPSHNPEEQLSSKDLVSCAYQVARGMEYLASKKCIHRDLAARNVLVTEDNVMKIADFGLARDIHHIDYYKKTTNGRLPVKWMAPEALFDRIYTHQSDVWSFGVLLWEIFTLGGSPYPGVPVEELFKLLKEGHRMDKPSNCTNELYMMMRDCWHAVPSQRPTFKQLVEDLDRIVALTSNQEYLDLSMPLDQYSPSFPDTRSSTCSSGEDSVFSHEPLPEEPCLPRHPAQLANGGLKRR

| Compound | inhibition [1] [%] | inhibition [2] [%] | inhibition [3] [%] | inhibition [4] [%] | inhibition [5] [%] | inhibition [6] [%] |
| --- | --- | --- | --- | --- | --- | --- |
| O=C(Nc1ccc(C(=O)N2CCN(c3ccccc3)CC2)cc1)c1n[nH]c2ccccc12 | 6.3 | 90.1 | 9.3 | 13 | 1.3 | -1.9 |
| O=C(Nc1ccc(CN2CCN(c3ccccc3)CC2)cc1)c1n[nH]c2ccccc12 | -1 | 80.5 | 3.6 | 8.3 | 0.6 | -3.1 |
| O=C(Nc1ccccc1)c1n[nH]c2ccccc12 | 17 | 95 | 10.6 | 32.9 | 0.7 | 4.5 |
